The values below are quoted from earlier work in patent publication US11224632B2 (priority 2016, dated 2022).

The target of the data set is N-type calcium channel (Homo sapiens, UniProt Q00975). As to conditions: in vivo; cited from earlier work.
Chain of N-type calcium channel (Q00975 whole entry, looked up): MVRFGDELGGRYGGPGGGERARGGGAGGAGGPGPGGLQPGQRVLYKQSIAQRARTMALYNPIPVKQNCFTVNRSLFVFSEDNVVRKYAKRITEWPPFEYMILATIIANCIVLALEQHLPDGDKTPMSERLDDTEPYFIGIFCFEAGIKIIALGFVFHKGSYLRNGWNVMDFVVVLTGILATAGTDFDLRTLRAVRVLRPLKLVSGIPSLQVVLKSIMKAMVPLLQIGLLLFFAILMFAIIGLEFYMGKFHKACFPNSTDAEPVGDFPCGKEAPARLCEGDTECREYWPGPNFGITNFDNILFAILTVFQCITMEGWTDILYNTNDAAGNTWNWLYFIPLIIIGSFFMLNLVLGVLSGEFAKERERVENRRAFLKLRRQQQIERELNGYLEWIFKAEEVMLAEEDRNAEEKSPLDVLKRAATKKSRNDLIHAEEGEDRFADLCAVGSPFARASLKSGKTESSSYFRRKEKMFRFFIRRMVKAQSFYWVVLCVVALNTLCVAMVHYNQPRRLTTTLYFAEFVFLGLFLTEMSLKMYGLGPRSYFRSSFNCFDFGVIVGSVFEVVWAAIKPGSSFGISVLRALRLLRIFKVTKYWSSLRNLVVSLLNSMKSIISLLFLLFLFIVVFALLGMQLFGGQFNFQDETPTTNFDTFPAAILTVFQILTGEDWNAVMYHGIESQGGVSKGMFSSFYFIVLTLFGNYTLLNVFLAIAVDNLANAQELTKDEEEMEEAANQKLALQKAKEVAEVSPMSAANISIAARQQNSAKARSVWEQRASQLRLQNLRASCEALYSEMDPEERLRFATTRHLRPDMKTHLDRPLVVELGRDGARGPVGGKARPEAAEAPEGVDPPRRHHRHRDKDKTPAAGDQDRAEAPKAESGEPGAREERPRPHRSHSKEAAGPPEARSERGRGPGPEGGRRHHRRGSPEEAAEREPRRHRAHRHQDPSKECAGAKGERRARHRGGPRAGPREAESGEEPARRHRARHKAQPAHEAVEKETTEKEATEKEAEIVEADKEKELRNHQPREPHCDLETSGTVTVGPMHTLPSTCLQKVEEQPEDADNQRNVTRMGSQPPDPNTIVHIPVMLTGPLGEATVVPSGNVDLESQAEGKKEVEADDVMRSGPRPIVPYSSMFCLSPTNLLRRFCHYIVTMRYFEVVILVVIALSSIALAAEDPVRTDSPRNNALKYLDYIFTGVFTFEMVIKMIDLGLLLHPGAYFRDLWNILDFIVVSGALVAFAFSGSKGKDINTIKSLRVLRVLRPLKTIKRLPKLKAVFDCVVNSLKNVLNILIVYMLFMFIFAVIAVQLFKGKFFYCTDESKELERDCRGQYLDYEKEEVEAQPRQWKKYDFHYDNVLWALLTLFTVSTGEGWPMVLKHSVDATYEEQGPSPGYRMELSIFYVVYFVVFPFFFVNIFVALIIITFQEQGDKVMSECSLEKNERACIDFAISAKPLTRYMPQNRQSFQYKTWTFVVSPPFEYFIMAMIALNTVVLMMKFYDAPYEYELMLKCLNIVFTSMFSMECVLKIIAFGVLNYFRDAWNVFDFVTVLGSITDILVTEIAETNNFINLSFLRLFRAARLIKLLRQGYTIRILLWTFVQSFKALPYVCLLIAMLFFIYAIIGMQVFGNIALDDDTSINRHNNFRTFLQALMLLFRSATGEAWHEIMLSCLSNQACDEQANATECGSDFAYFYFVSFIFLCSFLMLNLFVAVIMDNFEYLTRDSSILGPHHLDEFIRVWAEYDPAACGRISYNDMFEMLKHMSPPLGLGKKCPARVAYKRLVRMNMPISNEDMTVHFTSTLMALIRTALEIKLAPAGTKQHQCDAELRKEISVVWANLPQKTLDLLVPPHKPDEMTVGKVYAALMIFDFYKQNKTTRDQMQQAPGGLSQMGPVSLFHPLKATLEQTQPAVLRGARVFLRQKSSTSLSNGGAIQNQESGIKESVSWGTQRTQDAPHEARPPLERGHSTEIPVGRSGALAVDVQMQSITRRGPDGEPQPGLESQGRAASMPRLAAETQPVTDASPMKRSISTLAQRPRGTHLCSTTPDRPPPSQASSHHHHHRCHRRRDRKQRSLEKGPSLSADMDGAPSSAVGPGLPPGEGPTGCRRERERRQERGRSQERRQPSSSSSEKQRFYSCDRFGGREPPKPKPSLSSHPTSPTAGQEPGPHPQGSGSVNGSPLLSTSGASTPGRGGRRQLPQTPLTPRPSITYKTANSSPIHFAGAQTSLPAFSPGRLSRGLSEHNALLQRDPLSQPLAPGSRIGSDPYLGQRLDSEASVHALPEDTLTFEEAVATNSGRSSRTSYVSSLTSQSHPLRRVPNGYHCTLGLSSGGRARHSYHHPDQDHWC

`CSCC[C@@H]1NC(=O)[C@H](CC(C)C)NC(=O)[C@H](CCCNC(=N)N)NC(=O)[C@H](CO)NC(=O)[C@@H]2CSSC[C@@H]3NC(=O)[C@H](CO)NC(=O)CNC(=O)[C@H]([C@@H](C)O)NC(=O)[C@H](CSSC[C@H](N)C(=O)N[C@@H](CCCCN)C(=O)NCC(=O)N[C@@H](CCCCN)C(=O)NCC(=O)N[C@@H](C)C(=O)N[C@@H](CCCCN)C(=O)N2)NC(=O)[C@H](CSSC[C@@H](C(N)=O)NC(=O)[C@H](CCCCN)NC(=O)CNC(=O)[C@H](CO)NC(=O)[C@H](CCCNC(=N)N)NC3=O)NC(=O)[C@H](CC(=O)O)NC(=O)[C@H](Cc2ccc(O)cc2)NC1=O` [ziconotide]: the “patients with severe CNS adverse effects” value is 88%.
